Results taken from the NIST ThermoML archive (doi:10.1016/j.fluid.2016.02.009).
Numbers after ± are expanded uncertainties.

Conditions: Liquid, Vibrating tube method

COC(C)(C)C [2-methoxy-2-methylpropane]
mass density [kg/m3]
Conditions | 283.15 K | 288.15 K | 293.15 K | 298.15 K | 303.15 K | 308.15 K | 313.15 K | 318.15 K | 323.15 K
100 kPa | 750.94 ± 0.3 | 745.79 ± 0.3 | 740.59 ± 0.3 | 735.34 ± 0.3 | 730.04 ± 0.3 | 724.69 ± 0.3 | 719.29 ± 0.3 | 713.84 ± 0.3 | 708.45 ± 0.3
5000 kPa | 756.29 ± 0.33 | 751.33 ± 0.33 | 746.34 ± 0.33 | 741.32 ± 0.33 | 736.27 ± 0.33 | 731.19 ± 0.33 | 726.07 ± 0.34 | 720.92 ± 0.34 | 715.73 ± 0.34
10000 kPa | 761.29 ± 0.36 | 756.52 ± 0.36 | 751.7 ± 0.37 | 746.89 ± 0.37 | 742.05 ± 0.37 | 737.18 ± 0.37 | 732.27 ± 0.37 | 727.36 ± 0.38 | 722.39 ± 0.38
15000 kPa | 765.93 ± 0.4 | 761.32 ± 0.4 | 756.68 ± 0.4 | 752.04 ± 0.4 | 747.37 ± 0.41 | 742.69 ± 0.41 | 737.97 ± 0.41 | 733.26 ± 0.41 | 728.51 ± 0.42
20000 kPa | 770.32 ± 0.43 | 765.86 ± 0.43 | 761.35 ± 0.44 | 756.85 ± 0.44 | 752.37 ± 0.44 | 747.84 ± 0.44 | 743.29 ± 0.45 | 738.74 ± 0.45 | 734.2 ± 0.45
25000 kPa | 774.48 ± 0.46 | 770.15 ± 0.47 | 765.77 ± 0.47 | 761.42 ± 0.47 | 757.05 ± 0.48 | 752.67 ± 0.48 | 748.27 ± 0.48 | 743.91 ± 0.49 | 739.51 ± 0.49
30000 kPa | 778.47 ± 0.49 | 774.24 ± 0.5 | 770.01 ± 0.5 | 765.75 ± 0.51 | 761.51 ± 0.52 | 757.26 ± 0.52 | 752.99 ± 0.53 | 748.75 ± 0.53 | 744.49 ± 0.54
35000 kPa | 782.29 ± 0.53 | 778.15 ± 0.54 | 774 ± 0.54 | 769.88 ± 0.55 | 765.74 ± 0.56 | 761.6 ± 0.56 | 757.46 ± 0.57 | 753.35 ± 0.57 | 749.2 ± 0.58
40000 kPa | 785.94 ± 0.57 | 781.89 ± 0.57 | 777.85 ± 0.58 | 773.81 ± 0.59 | 769.79 ± 0.59 | 765.75 ± 0.6 | 761.71 ± 0.61 | 757.7 ± 0.61 | 753.67 ± 0.62
45000 kPa | 789.45 ± 0.6 | 785.49 ± 0.61 | 781.54 ± 0.62 | 777.6 ± 0.62 | 773.65 ± 0.63 | 769.71 ± 0.64 | 765.77 ± 0.65 | 761.86 ± 0.65 | 757.92 ± 0.66
50000 kPa | 792.86 ± 0.64 | 788.97 ± 0.64 | 785.09 ± 0.65 | 781.23 ± 0.66 | 777.36 ± 0.67 | 773.49 ± 0.68 | 769.65 ± 0.68 | 765.83 ± 0.69 | 761.98 ± 0.7
55000 kPa | 796.13 ± 0.67 | 792.3 ± 0.68 | 788.51 ± 0.69 | 784.71 ± 0.69 | 780.95 ± 0.7 | 777.14 ± 0.71 | 773.39 ± 0.72 | 769.63 ± 0.73 | 765.85 ± 0.74
60000 kPa | 799.29 ± 0.7 | 795.55 ± 0.71 | 791.81 ± 0.72 | 788.1 ± 0.73 | 784.37 ± 0.74 | 780.65 ± 0.75 | 776.97 ± 0.76 | 773.29 ± 0.76 | 769.61 ± 0.77
65000 kPa | 802.37 ± 0.73 | 798.67 ± 0.74 | 795 ± 0.75 | 791.36 ± 0.76 | 787.7 ± 0.77 | 784.04 ± 0.78 | 780.41 ± 0.79 | 776.82 ± 0.8 | 773.22 ± 0.81
